Marks after values point to notes of the source that are not given here. Positions of bridges follow the written chain, without caps; N, C: chain ends. Non-standard residues stand in square brackets, D forms with d. Residues, ends and D or L forms follow the SMILES beside them. No end group written: not given here.
Experiments:
[1] = system: chemokine-induced THP-1 migration (MCP-1, MIP1α, IL8, SDF1α); test: Trans-well THP-1 migration assay, across the chemokines tested; format: cell-based, human; settings: for selectivity ratio (CC versus CXC chemokines): >1 = greater inhibition of CC chemokines, <1 = of CXC chemokines; for CC SPECIFICITY: Table 7, average inhibitory ED50 versus SDF1 and IL8 divided by average inhibitory ED50 versus MCP-1 and MIP1α
Method: To determine whether an agent inhibits a chemokine-induced activity, such as macrophage recruitment, varying amounts of the agent are mixed with cells in the presence of a known chemoattractant. […] Chemokine (such as MCP-1, MIP1α, IL8 or SDF-1α), at a concentration known to cause significant migration of THP-1 cells in the trans-well migration assay, is placed in the lower compartment (FIG. 1). […] After incubation, the cells are gently removed from the top of the filter with a pipette, 20 μl of 20 mM EDTA in simple PBS is added into each top well, and incubated for 20 minutes at 4° C. The filter is carefully flushed with media using a gentle flow, and removed. […] The media is carefully aspirated from each well, and the converted dye is solubilized by 20 μl of DMSO. Absorbance of converted dye is measured at a wavelength of 595 nm using an ELISA plate reader. The number of migrated cells in each well is then determined by interpolation of the standard curve (see also Imai et al., J. Biol. Chem., 272, 15036 (1997)). […] The framed filter was aligned with the holes in the corner of the filter frame and placed over the wells. Five×10^4 THP-1 cells in 25 μl of RPMI-1640 culture media were added to the upper compartment. Peptides were dissolved in Milli Q water and then serially diluted in culture medium. In most cases, the serially diluted peptides were added to the upper compartment of the chemotaxis chamber. […] After incubation, the cells were gently removed from the top of the filter with a pipette, 20 μl of 20 mM EDTA in PBS was added into each top well, and the mixture was incubated for 20 minutes at 4° C. The filter was then carefully flushed with media using a gentle flow, and removed. […] The media was carefully aspirated from each well, and the converted dye was solubilized by 20 μl of DMSO. Absorbance of converted dye was measured at a wavelength of 595 nm using an ELISA plate reader. […] Representative chemokines included a beta-chemokine (“CC”), MIP-1α, and two alpha-chemokines (“CXC”), IL-8 and SDF-1α. […]

[2] = molecular target: T1, Duffy Antigen Receptor for Chemokines (DARC) (Homo sapiens, UniProt Q16570); test: DARC binding: competition with 125I-labeled MCP-1 on red blood cells; settings: for DUFFY SELECTIVITY: estimated ka for binding to red blood cells divided by average inhibitory ED50 versus each of the chemokines
T1 sequence (Q16570 1-336): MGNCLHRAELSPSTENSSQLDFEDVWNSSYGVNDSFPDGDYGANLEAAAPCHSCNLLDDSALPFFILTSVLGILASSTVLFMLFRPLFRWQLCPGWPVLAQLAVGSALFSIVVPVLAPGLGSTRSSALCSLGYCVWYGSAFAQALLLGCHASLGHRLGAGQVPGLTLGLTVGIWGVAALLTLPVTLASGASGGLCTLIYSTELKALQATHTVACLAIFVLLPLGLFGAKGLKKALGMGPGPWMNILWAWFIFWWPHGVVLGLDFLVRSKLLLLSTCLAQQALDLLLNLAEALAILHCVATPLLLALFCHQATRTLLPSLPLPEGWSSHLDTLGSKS

[3] = system: SDF-1α induced THP-1 migration; test: Trans-well THP-1 migration assay, SDF-1α as chemoattractant; format: cell-based, human; settings: THP-1 migration
Method: (§1) FIG. 1 is a schematic of the trans-well migration assay. In most experiments, the peptide (wavy line) is added to the upper well with about 50,000 cells (O). The upper and lower wells are separated by a 5 μm or 8 μm pore size PVP-free membrane (- - - -). Chemokine (●) is added to the lower well. After 4 hours, the number of cells that have migrated through the membrane are measured (◯ in lower well).
(§2) To determine whether an agent inhibits a chemokine-induced activity, such as macrophage recruitment, varying amounts of the agent are mixed with cells in the presence of a known chemoattractant. For example, a range of known concentrations of an agent, e.g., a chemokine peptide, is incubated with a defined number (e.g., 10^4-10^6) of human THP-1 monocyte cells in individual wells of the top compartment of a trans-well plate. […] A standard curve consisting of a two-fold dilution series of THP-1 cells (in 29 μl) is prepared to accurately quantify the number of cells that have migrated. […] Absorbance of converted dye is measured at a wavelength of 595 nm using an ELISA plate reader. The number of migrated cells in each well is then determined by interpolation of the standard curve (see also Imai et al., J. Biol. Chem., 272, 15036 (1997)). […]

[4] = system: MCP-1 induced THP-1 migration; test: Trans-well THP-1 migration assay, MCP-1 as chemoattractant; format: cell-based, human; settings: for IC50: derivatives of leu4ile11peptide 3, read-out: MCP-1 inhibitory activity in the THP-1 transwell assay
Method: as §1
To determine whether an agent inhibits a chemokine-induced activity, such as macrophage recruitment, varying amounts of the agent are mixed with cells in the presence of a known chemoattractant. For example, a range of known concentrations of an agent, e.g., a chemokine peptide, is incubated with a defined number (e.g., 10^4-10^6) of human THP-1 monocyte cells in individual wells of the top compartment of a trans-well plate. Chemokine (such as MCP-1, MIP1α, IL8 or SDF-1α), at a concentration known to cause significant migration of THP-1 cells in the trans-well migration assay, is placed in the lower compartment (FIG. 1). Cells are then incubated at 37° C. for a period sufficient to allow migration, e.g., 4 hours. After incubation, the cells are gently removed from the top of the filter with a pipette, 20 μl of 20 mM EDTA in simple PBS is added into each top well, and incubated for 20 minutes at 4° C. The filter is carefully flushed with media using a gentle flow, and removed. A standard curve consisting of a two-fold dilution series of THP-1 cells (in 29 μl) is prepared to accurately quantify the number of cells that have migrated. Migrated cells are stained with 3 μl of MTT stock dye solution which is added directly into each well (5 mg/ml in RPMI-1640 without phenol red, Sigma Chemical Co.) and incubated at 37° C. for 4 hours. The media is carefully aspirated from each well, and the converted dye is solubilized by 20 μl of DMSO. Absorbance of converted dye is measured at a wavelength of 595 nm using an ELISA plate reader. The number of migrated cells in each well is then determined by interpolation of the standard curve (see also Imai et al., J. Biol. Chem., 272, 15036 (1997)).
Any method suitable for counting cells can be used, for example, counting with a hemocytometer, incubation of the cells with MTT (see above), or FACS analysis. A negative control assay is also performed, using TGF-β or another non-chemokine chemoattractant (e.g., IL1β or TNFα). To assess whether the agent is cytotoxic, the same concentrations of agent are incubated with THP-1 cells. Agents which 1) are not cytotoxic at levels which inhibit migration, 2) are ineffective at inhibiting the negative control-induced migration, and 3) reduce or inhibit chemokine-induced THP-1 migration, are agents which fall within the scope of the invention.
For this assay, THP-1 cells were maintained at a density of 4×10^5 cells per ml in RPMI-1640 supplemented with 10% fetal calf serum+20 μM 2-mercaptoethanol. Chemotaxis was induced in a 96-well disposable chemotaxis chamber fitted with a […] polycarbonate filter (PVP free, ChemoTX, Neuroprobe Inc., Cabin John). Twenty-nine μl of chemoattractant (recombinant human chemokine; 50 ng/ml, i.e., 5.9 nM) or control (100 ng/ml TGFβ) was added to the lower compartment of each well. The framed filter was aligned with the holes in the corner of the filter frame and placed over the wells. Five×10^4 THP-1 cells in 25 μl of RPMI-1640 culture media were added to the upper compartment. Peptides were dissolved in Milli Q water and then serially diluted in culture medium. In most cases, the serially diluted peptides were added to the upper compartment of the chemotaxis chamber. The chamber was incubated at 37° C. in a humidified atmosphere of 5% CO2 for 4 hours.
After incubation, the cells were gently removed from the top of the filter with a pipette, 20 μl of 20 mM EDTA in PBS was added into each top well, and the mixture was incubated for 20 minutes at 4° C. The filter was then carefully flushed with media using a gentle flow, and removed. […]

[5] = system: IL8 induced THP-1 migration; test: Trans-well THP-1 migration assay, IL8 as chemoattractant; format: cell-based, human; settings: THP-1 migration
Method: as §1, §2

Compound: EICADPSQKWVQ [Ser7peptide 3]
- selectivity ratio (CC versus CXC chemokines) [1]: 0.5
- CC SPECIFICITY [1]: 0.5
- DUFFY SELECTIVITY ([2]; Table 7): 2.00

Compound: KLK [cognate tripeptide from SDF1]
- inhibition of SDF1, in words [3]: specific and potent inhibitor
- CC SPECIFICITY [1]: <0.1

Compound: CQVWKQKPDAC [LRD-Cys13leu4ile11pep3[3-12]]
- IC50 [4]: 0.2 to 0.4 µM
- DUFFY SELECTIVITY ([2]; Table 7): 4.59

Compound: EICLDPKQKWIQ [Leu4ile11peptide 3]
- concentrations inhibiting MCP1 induced migration [4]: around 1 μM
- potency as an inhibitor of MCP-1 signaling relative to peptide 3(1-12)[MCP-1] [4]: approximately 5 fold
- IC50 [4]: 1 to 5 µM
- potency as an inhibitor of CC chemokines relative to peptide 3(1-12)[MCP-1] [1]: approximately 5 fold
- selectivity ratio (CC versus CXC chemokines) [1]: 2.0
- CC SPECIFICITY [1]: 2.0
- DARC binding, in words [2]: essentially no DARC binding capacity

Compound: EICLDPKQKWVQ [Leu4peptide 3]
- increase in potency as an inhibitor of CXC chemokines compared with peptide 3(1-12)[MCP-1] [1]: approximately 4 fold
- selectivity ratio (CC versus CXC chemokines) [1]: 0.37
- CC SPECIFICITY [1]: 0.4

Compound: -CQVWKQKPDA C- ([dC][dQ][dV][dW][dK][dQ][dK][dP][dD][dA][dC]; disulfide 1-11) [CRD-Cys13pep3[3-12]]
- DUFFY SELECTIVITY ([2]; Table 7): 8.82

Compound: RGD [reference compound]
- inhibition of THP-1 cell migration induced by MCP-1, MIP1α, IL-8 and SDF1α, in words [1]: None of these significantly inhibited

Compound: Leu4ile11peptide 3(3-12)[MCP-1]: leu4ile11 variant of peptide 3(3-12)[MCP-1] (CLDPKKEWIQ)
- affinity relative to peptide 3(1-12)[MCP-1] ([1]; in words): higher affinity peptide analog

Compound: EICADPSEEWVQ [Ser7Glu8Glu9pep 3]
- CC SPECIFICITY [1]: 1.6
- DUFFY SELECTIVITY ([2]; Table 7): 0.59

Compound: NCCCC[C@H](NC(=O)[C@H](CCC(N)=O)NC(=O)[C@@H](N)CCCCN)C(=O)O [KQK]
- Kd [2]: > 50 µM

Compound: KEN [cognate tripeptide from IL8]
- inhibition of IL8, in words [5]: specific and potent inhibitor
- CC SPECIFICITY [1]: <0.1

Compound: EICADPKQKWIQ [Ile11peptide 3]
- selectivity ratio (CC versus CXC chemokines) [1]: 0.9
- CC SPECIFICITY [1]: 0.9

Compound: KQKWVQ [Peptide 3[7-12]]
- selectivity ratio (CC versus CXC chemokines) [1]: 1.1
- CC SPECIFICITY [1]: 1.0
- DUFFY SELECTIVITY ([2]; Table 7): 2.94
- DARC specificity ratio / Duffy selectivity ([2]; estimated ka for association with DARC divided by the ED50 for biological activity): about 3.0

Compound: DYFETSSQCSKPGV [Pep2[MIP1α]]
- Kd [2]: > 50 µM
- DUFFY SELECTIVITY (peptide 2 family) ([2]; Table 7, ka for binding to red blood cells divided by the ka for binding THP-1 cells): >100^d

Compound: CC[C@H](C)[C@H](NC(=O)[C@H](C)NC(=O)[C@H](CC(=O)O)NC(=O)[C@@H]1CCCN1C(=O)[C@H](CCC(N)=O)NC(=O)[C@H](C)N)C(=O)N[C@@H](CC(N)=O)C(=O)N[C@@H](C)C(=O)N1CCC[C@H]1C(=O)N[C@H](C(=O)N[C@H](C(=O)N[C@@H](CS)C(=O)N[C@@H](CS)C(=O)O)[C@@H](C)O)C(C)C [Peptide 1] (H-AQPDAINAPVTCC-OH)
- Kd [2]: > 100 µM

Compound: CADPKQKWVQ [Peptide 3[3-12]]
- CC SPECIFICITY [1]: 1.2
- DUFFY SELECTIVITY ([2]; Table 7): 1.21

Compound: WIQ
- CC SPECIFICITY [1]: 1.0

Compound: TTT [reference compound]
- inhibition of THP-1 cell migration induced by MCP-1, MIP1α, IL-8 and SDF1α, in words [1]: None of these significantly inhibited

Compound: APG [reference compound]
- inhibition of THP-1 cell migration induced by MCP-1, MIP1α, IL-8 and SDF1α, in words [1]: None of these significantly inhibited

Compound: GGR [reference compound]
- inhibition of THP-1 cell migration induced by MCP-1, MIP1α, IL-8 and SDF1α, in words [1]: None of these significantly inhibited

Compound: EICADP [Peptide 3[1-6]]
- CC SPECIFICITY [1]: 0.7

Reference: patent US6989435B2, “Compounds and methods to inhibit or augment an inflammatory response” (Cambridge University Technical Services Ltd., priority 1997, dated 2006)
